Assay results from US6737383B1, “Herbicidal oxadiazolidines” (priority 1999, dated 2004).

How the values were obtained:
bedstraw = assay: Test B pre/postemergence bedstraw; format: in vivo, Galium aparine
In short: (§1)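 Response is a visual 0-to-10 score relative to untreated plants, where 0 means no effect and 10 means complete control, taken twelve to sixteen days after application. Treatments went onto soil at planting and onto foliage of 1- to 4-leaf plants, using a surfactant-containing non-phytotoxic solvent.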

blackgrass = assay: Test B pre/postemergence blackgrass; format: in vivo, Alopecurus myosuroides
In short: as §1

surinam grass = assay: Test B pre/postemergence surinam grass; format: in vivo, Brachiaria decumbens
In short: as §1

cocklebur = assay: Test B pre/postemergence cocklebur; format: in vivo, Xanthium strumarium
In short: as §1

corn = assay: Test B pre/postemergence corn; format: in vivo, Zea mays
In short: as §1

crabgrass = assay: Test B pre/postemergence crabgrass; format: in vivo, Digitaria sanguinalis
In short: as §1

giant foxtail = assay: Test B pre/postemergence giant foxtail; format: in vivo, Setaria faberii
In short: as §1

morningglory = assay: Test B pre/postemergence morningglory; format: in vivo, Ipomoea hederacea
In short: as §1

pigweed = assay: Test B pre/postemergence pigweed; format: in vivo, Amaranthus retroflexus
In short: as §1

soybean = assay: Test B pre/postemergence soybean; format: in vivo, Glycine max
In short: as §1

velvetleaf = assay: Test B pre/postemergence velvetleaf; format: in vivo, Abutilon theophrasti
In short: as §1

wheat = assay: Test B pre/postemergence wheat; format: in vivo, Triticum aestivum
In short: as §1

wild oat = assay: Test B pre/postemergence wild oat; format: in vivo, Avena fatua
In short: as §1

rice = assay: Test B flood test rice; format: in vivo, Oryza sativa
In short: (§2)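 Plants were grown to the 2-leaf stage before treatment with test chemical, then held in a greenhouse for twelve to sixteen days. Injury was visually rated against untreated controls on a 0–10 scale, where 0 is no effect and 10 is complete control.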

smallflower flatsedge = assay: Test B flood test smallflower flatsedge; format: in vivo, Cyperus difformis
In short: as §2

bamyardgrass = assay: Test B flood test barnyardgrass; format: in vivo, Echinochloa crus-galli
In short: as §2

[1] = Preemergence, Rate 31 g/ha, visual rating, scale 0 to 10 (0 no effect, 10 complete control)
[2] = Preemergence, Rate 62 g/ha, scale of 0 to 10 where 0 is no effect and 10 is complete control
[3] = Preemergence, Rate 250 g/ha, scale of 0 to 10 where 0 is no effect and 10 is complete control
[4] = Rate 31 g/ha, Postemergence, scale 0 to 10
[5] = Rate 62 g/ha, Postemergence, scale of 0 to 10 where 0 is no effect and 10 is complete control
[6] = Rate 125 g/ha, Postemergence, scale 0 to 10
[7] = Rate 125 g/ha, Preemergence, scale of 0 to 10 where 0 is no effect and 10 is complete control
[8] = Rate 31 g/ha, Pre-emergence section (flood test species), scale 0 to 10
[9] = Rate 62 g/ha, headed Pre-emergence (flood test species), scale 0 to 10 (0 no effect, 10 complete control)
[10] = Rate 125 g/ha, Pre-emergence, flood test species, scale 0 to 10 where 0 is no effect and 10 is complete control
[11] = Rate 250 g/ha, Pre-emergence, flood-test species, scale 0 to 10, 0 is no effect, 10 is complete control

CC(=O)Cn1c(=O)on(C(=O)N(c2ccc(F)cc2)C(C)C)c1=O [Compound 217]
Bedstraw plant response rating (bedstraw; [1]): 0
Bedstraw plant response rating (bedstraw; [2]): 0
Bedstraw plant response rating (bedstraw; [3]): 0
Bedstraw plant response rating (bedstraw; [4]): 0
Bedstraw plant response rating (bedstraw; [5]): 0
Bedstraw plant response rating (bedstraw; [6]): 0
Bedstraw plant response rating (bedstraw; [7]): 0
Plant response rating (0 to 10; 0 is no effect, 10 is complete control), Bedstraw (bedstraw; Rate 250 g/ha, Postemergence): 0
Blackgrass plant response rating (blackgrass; [1]): 0
Blackgrass plant response rating (blackgrass; [2]): 6
Blackgrass plant response rating (blackgrass; [3]): 8
Blackgrass plant response rating (blackgrass; [4]): 0
Blackgrass plant response rating (blackgrass; [5]): 3
Blackgrass plant response rating (blackgrass; [6]): 6
Blackgrass plant response rating (blackgrass; [7]): 6
Plant response rating (0 to 10; 0 is no effect, 10 is complete control), Blackgrass (blackgrass; Rate 250 g/ha, Postemergence): 6
B. signalgrass plant response rating (surinam grass; [1]): 0
B. signalgrass plant response rating (surinam grass; [2]): 0
B. signalgrass plant response rating (surinam grass; Preemergence, Rate 250 g/ha, scale 0 to 10, 0 is no effect, 10 is complete control): 0
B. signalgrass plant response rating (surinam grass; [4]): 0
B. signalgrass plant response rating (surinam grass; [5]): 0
B. signalgrass plant response rating (surinam grass; Rate 125 g/ha, Postemergence, scale 0 (no effect) to 10 (complete control)): 7
B. signalgrass plant response rating (surinam grass; [7]): 0
Plant response rating (0 to 10; 0 is no effect, 10 is complete control), B. signalgrass (surinam grass; Rate 250 g/ha, Postemergence): 7
Cocklebur plant response rating (cocklebur; [1]): 0
Cocklebur plant response rating (cocklebur; [2]): 0
Cocklebur plant response rating (cocklebur; [3]): 0
Cocklebur plant response rating (cocklebur; [4]): 0
Cocklebur plant response rating (cocklebur; [5]): 0
Cocklebur plant response rating (cocklebur; [6]): 0
Cocklebur plant response rating (cocklebur; [7]): 0
Plant response rating (0 to 10; 0 is no effect, 10 is complete control), Cocklebur (cocklebur; Rate 250 g/ha, Postemergence): 0
Corn plant response rating (corn; [1]): 0
Corn plant response rating (corn; [2]): 0
Corn plant response rating (corn; [3]): 0
Corn plant response rating (corn; [4]): 0
Corn plant response rating (corn; [5]): 0
Corn plant response rating (corn; [6]): 0
Corn plant response rating (corn; [7]): 0
Plant response rating (0 to 10; 0 is no effect, 10 is complete control), Corn (corn; Rate 250 g/ha, Postemergence): 0
Crabgrass plant response rating (crabgrass; [1]): 0
Crabgrass plant response rating (crabgrass; [2]): 3
Crabgrass plant response rating (crabgrass; [3]): 8
Crabgrass plant response rating (crabgrass; [4]): 0
Crabgrass plant response rating (crabgrass; [5]): 0
Crabgrass plant response rating (crabgrass; [6]): 2
Crabgrass plant response rating (crabgrass; [7]): 4
Plant response rating (0 to 10; 0 is no effect, 10 is complete control), Crabgrass (crabgrass; Rate 250 g/ha, Postemergence): 3
Giant foxtail plant response rating (giant foxtail; [1]): 3
Giant foxtail plant response rating (giant foxtail; [2]): 6
Giant foxtail plant response rating (giant foxtail; [3]): 10
Giant foxtail plant response rating (giant foxtail; [4]): 0
Giant foxtail plant response rating (giant foxtail; [5]): 1
Giant foxtail plant response rating (giant foxtail; [6]): 2
Giant foxtail plant response rating (giant foxtail; [7]): 8
Plant response rating (0 to 10; 0 is no effect, 10 is complete control), Giant foxtail (giant foxtail; Rate 250 g/ha, Postemergence): 7
Morningglory plant response rating (morningglory; [1]): 0
Morningglory plant response rating (morningglory; [2]): 0
Morningglory plant response rating (morningglory; [3]): 0
Morningglory plant response rating (morningglory; [4]): 0
Morningglory plant response rating (morningglory; [5]): 0
Morningglory plant response rating (morningglory; [6]): 0
Morningglory plant response rating (morningglory; [7]): 0
Plant response rating (0 to 10; 0 is no effect, 10 is complete control), Morningglory (morningglory; Rate 250 g/ha, Postemergence): 0
Redroot pigweed plant response rating (pigweed; [1]): 0
Redroot pigweed plant response rating (pigweed; [2]): 0
Redroot pigweed plant response rating (pigweed; [3]): 10
Redroot pigweed plant response rating (pigweed; [4]): 0
Redroot pigweed plant response rating (pigweed; [5]): 0
Redroot pigweed plant response rating (pigweed; [6]): 0
Redroot pigweed plant response rating (pigweed; [7]): 5
Plant response rating (0 to 10; 0 is no effect, 10 is complete control), Redroot pigweed (pigweed; Rate 250 g/ha, Postemergence): 0
Soybean plant response rating (soybean; [1]): 0
Soybean plant response rating (soybean; [2]): 0
Soybean plant response rating (soybean; [3]): 0
Soybean plant response rating (soybean; [5]): 1
Soybean plant response rating (soybean; [6]): 1
Soybean plant response rating (soybean; [7]): 0
Plant response rating (0 to 10; 0 is no effect, 10 is complete control), Soybean (soybean; Rate 250 g/ha, Postemergence): 1
Velvetleaf plant response rating (velvetleaf; [1]): 0
Velvetleaf plant response rating (velvetleaf; [2]): 0
Velvetleaf plant response rating (velvetleaf; [3]): 5
Velvetleaf plant response rating (velvetleaf; [5]): 0
Velvetleaf plant response rating (velvetleaf; [6]): 0
Velvetleaf plant response rating (velvetleaf; [7]): 1
Plant response rating (0 to 10; 0 is no effect, 10 is complete control), Velvetleaf (velvetleaf; Rate 250 g/ha, Postemergence): 0
Wheat plant response rating (wheat; [1]): 0
Wheat plant response rating (wheat; [2]): 0
Wheat plant response rating (wheat; [3]): 8
Wheat plant response rating (wheat; [5]): 0
Wheat plant response rating (wheat; [6]): 2
Wheat plant response rating (wheat; [7]): 3
Plant response rating (0 to 10; 0 is no effect, 10 is complete control), Wheat (wheat; Rate 250 g/ha, Postemergence): 3
Wild oats plant response rating (wild oat; [1]): 0
Wild oats plant response rating (wild oat; [2]): 0
Wild oats plant response rating (wild oat; [3]): 2
Wild oats plant response rating (wild oat; [5]): 0
Wild oats plant response rating (wild oat; [6]): 0
Wild oats plant response rating (wild oat; [7]): 0
Plant response rating (0 to 10; 0 is no effect, 10 is complete control), Wild oats (wild oat; Rate 250 g/ha, Postemergence): 0
Rice plant response rating (rice; [8]): 0
Rice plant response rating (rice; [9]): 0
Rice plant response rating (rice; [10]): 0
Rice plant response rating (rice; [11]): 0
S. Flatsedge plant response rating (smallflower flatsedge; [8]): 0
S. Flatsedge plant response rating (smallflower flatsedge; [9]): 0
S. Flatsedge plant response rating (smallflower flatsedge; [10]): 0
S. Flatsedge plant response rating (smallflower flatsedge; [11]): 0
Barnyardgrass plant response rating (bamyardgrass; [8]): 0
Barnyardgrass plant response rating (bamyardgrass; [9]): 0
Barnyardgrass plant response rating (bamyardgrass; [10]): 0
Barnyardgrass plant response rating (bamyardgrass; [11]): 0
